Like-named read-outs stand apart in the source and are kept apart here.
Tests used:
Format in all cases: cell-based
Enterobacteria = experiment: In vitro antibiotic susceptibility strip test, Enterobacteria; conditions: for Susceptibility class, Enterobacteria / Count in brackets, Enterobacteria: colonies from feces of ob/ob mice; for Susceptibility class, Enterobacteria: Mueller Hinton agar, strip test; for Count in brackets, Enterobacteria: fraction given, not defined; for Growth / susceptibility of fecal enterobacteria, in words: summary of Table 1
Bacteroides = experiment: In vitro antibiotic susceptibility strip test, Bacteroides; conditions: for Count in brackets, Bacteroides: fraction given, not defined
Lactobacillus = experiment: In vitro antibiotic susceptibility strip test, Lactobacillus; conditions: colonies from feces of ob/ob mice; for Susceptibility class, Lactobacillus: MRS/cystein agar, strip test; for Count in brackets, Lactobacillus: fraction given, not defined
Bifidobacteria = experiment: In vitro antibiotic susceptibility strip test, Bifidobacteria; conditions: colonies from feces of ob/ob mice; for Susceptibility class, Bifidobacteria: MRS/cystein agar, strip test; for Count in brackets, Bifidobacteria: fraction given, not defined
[1] = colonies from feces of ob/ob mice, Brucella agar, strip test
[2] = colonies from feces of ob/ob mice

Compound	Susceptibility class, Enterobacteria (Enterobacteria)	Count in brackets, Enterobacteria (Enterobacteria)	Growth / susceptibility of fecal enterobacteria, in words (Enterobacteria)	Susceptibility class, Bacteroides (Bacteroides; [1])	Count in brackets, Bacteroides (Bacteroides; [2])	Susceptibility class, Lactobacillus (Lactobacillus)	Count in brackets, Lactobacillus (Lactobacillus)	Susceptibility class, Bifidobacteria (Bifidobacteria)	Count in brackets, Bifidobacteria (Bifidobacteria)	Susceptibility class, Bacteroides (Bacteroides)
CCn1cc(C(=O)O)c(=O)c2cc(F)c(N3CCNCC3)cc21 [Norfloxacin, norfloxacin]	S	19/19	capable of suppressing the growth	R	0/16	S/R	25/33	R	0/3	–
CC1(C)S[C@@H]2[C@H](NC(=O)[C@H](N)c3ccccc3)C(=O)N2[C@H]1C(=O)O [Ampicillin, ampicillin]	S/R	13/19	only partially sensitive	S	16/16	S	33/33	S	3/3	–
CC1(C)S[C@@H]2[C@H](NC(=O)[C@H](N)c3ccc(O)cc3)C(=O)N2[C@H]1C(=O)O [Amoxicillin, amoxicillin]	R	0/19	resistant	–	S/R (14/16)	S	33/33	S	3/3	S/R (14/16)

— patent US8591880B2, “Gut flora and weight management” (priority 2007, dated 2013)
